Test: plasma trough level of itraconazole required for clinical benefit, and side effects of high doses, in humans with cancer
Type: in vivo
Procedure: In particular, the minimum plasma trough level after 4 weeks of therapy required to have a clinically significant effect was at least 1000 ng/ml. […] These side effects associated with these high doses of itraconazole can be effectively managed by giving a selective mineralocorticoid antagonist, such as eplerenone. Accordingly, in some embodiments, the method further comprises administering eplerenone or other mineralocorticoid inhibitor.

## CCC(C)n1ncn(-c2ccc(N3CCN(c4ccc(OCC5COC(Cn6cncn6)(c6ccc(Cl)cc6Cl)O5)cc4)CC3)cc2)c1=O (centres unmarked) [itraconazole]
High doses giving plasma trough of at least 1000 ng/ml
  side-effects peculiar to high doses: hypertension, peripheral edema, and hypokalemia
human, plasma, after 4 weeks of therapy, humans with cancer, read-out: minimum plasma trough level required to have a clinically significant effect
  concentration at 4 weeks: ≥ 1000 ng/mL
